Key:
[1] = tested on: Leishmania donovani (MHOM-ET-67/L82 strain) amastigote forms; test: Antiinfective effect against axenic amastigotes of Leishmania donovani (Alamar Blue fluorescence); format: cell-based; conditions: for inhibition at 0.8 µg/mL: c = 0.8 μg/ml, read-out: Inhibition of cell growth (%) at c = 0.8 μg/ml; for inhibition at 4.8 µg/mL: c = 4.8 μg/ml, read-out: Inhibition of cell growth (%) at c = 4.8 μg/ml; for activity against Leishmania donovani (in words): summary of Table 6
Description: Amastigote forms of Leishmania donovani (MHOM-ET-67/L82 strain) were grown in axenic culture at 37° C. and pH 5.4 in SM medium (I. Cunningham, J. Protozool. 1977, 24, 325-329) supplemented with 10% fetal bovine serum. For the assay, amastigote forms were seeded into a microtiter plate containing two concentrations of each substance to be tested. After 72 h the dye Alamar Blue (Resazurin) was added to each culture, and the plate was incubated for two more hours. Fluorescence at 536/588 nm was measured using a microtiter plate fluorometer, and the fluorescence signal of each culture treated with a substance was compared to the fluorescence signal of untreated control cultures. The antileishmanial drug miltefosine served as a positive control.

[2] = tested on: DOHH-2 (aggressive B cell lymphoma) cell line; test: Cell viability, annexin V-FITC/PI flow cytometry, DOHH-2; format: cell-based; conditions: human tumor cell line DOHH-1-2 (aggressive B cell lymphoma), 72 h incubation
Text: (§1) Both cell lines of aggressive B cell lymphoma (DOHH-2, SU-DHL-4) and the multiple myeloma cell line RPMI8226 were obtained from the German Collection of Microorganisms and Cell Cultures (DSMZ) (ACC 47, ACC 495, and ACC 402, Braunschweig, Germany). The cultivation of the multiple myeloma cell line INA-6 had been previously described (R. Burger, A. Guenther, F. Bakker, M. Schmalzing, S. Bernand, W. Baum, B. Duerr, G. M. Hocke, H. Steininger, E. Gebhart, M. Gramatzki, Hematol. J. 2001, 2, 42-53). Normal mononuclear blood cells from the peripheral blood of two healthy donors were isolated by Ficoll-Hypaque density gradient centrifugation. To assess the percentage of apoptotic and viable cell fractions, a human annexin V-FITC/PI staining kit (Bender MedSystems, Vienna, Austria) was used. Cells (inoculation: 50000 cells mL^−1; incubation: 72 h) were washed in PBS, incubated for 10 min in 100 ml binding buffer (10 mM HEPES/NaOH, pH 7.4, 140 mM NaCl, 2.5 mM CaCl2) containing 2.5 ml annexin V-FITC mix and 1 mg/ml propidium iodide (PI), subsequently diluted with 300 ml binding buffer and analyzed by flow cytometry (FACSCalibur/CELLQuest; Becton Dickinson, Heidelberg, Germany). Early apoptosis is characterized by a positive annexin V-FITC staining. Cells in a late apoptotic stage lose their membrane integrity and additionally incorporate PI. […]

[3] = tested on: SU-DHL-4 (aggressive B cell lymphoma) cell line; test: Cell viability, annexin V-FITC/PI flow cytometry, SU-DHL-4; format: cell-based; conditions: human tumor cell line SU-DH-4 L (aggressive B cell lymphoma), 72 h incubation
Text: as §1

[4] = tested on: INA-6 (multiple myeloma) cell line; test: Cell viability, annexin V-FITC/PI flow cytometry, INA-6; format: cell-based; conditions: human tumor cell line INA-6 (multiple myeloma); 72 h incubation
Text: as §1

[5] = tested on: RPMI8226 (multiple myeloma) cell line; test: Cell viability, annexin V-FITC/PI flow cytometry, RPMI8226; format: cell-based; conditions: RPMI-8226; human tumor cell line RPMI8226 (multiple myeloma); 72 h incubation
Text: as §1

[6] = tested on: normal peripheral mononuclear blood cells; test: Cell viability, annexin V-FITC/PI flow cytometry, normal blood cells; format: cell-based, human; conditions: FIG. 9; for toxicity against normal peripheral mononuclear blood cells: cells of two healthy donors; for 50% response (EC50) in primary mononuclear blood cells: within the preferred therapeutic concentration range
Text: Both cell lines of aggressive B cell lymphoma (DOHH-2, SU-DHL-4) and the multiple myeloma cell line RPMI8226 were obtained from the German Collection of Microorganisms and Cell Cultures (DSMZ) (ACC 47, ACC 495, and ACC 402, Braunschweig, Germany). The cultivation of the multiple myeloma cell line INA-6 had been previously described (R. Burger, A. Guenther, F. Bakker, M. Schmalzing, S. Bernand, W. Baum, B. Duerr, G. M. Hocke, H. Steininger, E. Gebhart, M. Gramatzki, Hematol. J. 2001, 2, 42-53). Normal mononuclear blood cells from the peripheral blood of two healthy donors were isolated by Ficoll-Hypaque density gradient centrifugation. To assess the percentage of apoptotic and viable cell fractions, a human annexin V-FITC/PI staining kit (Bender MedSystems, Vienna, Austria) was used. Cells (inoculation: 50000 cells mL^−1; incubation: 72 h) were washed in PBS, incubated for 10 min in 100 ml binding buffer (10 mM HEPES/NaOH, pH 7.4, 140 mM NaCl, 2.5 mM CaCl2) containing 2.5 ml annexin V-FITC mix and 1 mg/ml propidium iodide (PI), subsequently diluted with 300 ml binding buffer and analyzed by flow cytometry (FACSCalibur/CELLQuest; Becton Dickinson, Heidelberg, Germany). Early apoptosis is characterized by a positive annexin V-FITC staining. Cells in a late apoptotic stage lose their membrane integrity and additionally incorporate PI. Viable cells are negative for both, annexin V-FITC and PI. The optical density of the controls was equaled to 100%.

[7] = Leishmania donovani, 72 h, axenic amastigotes

SMILES | inhibition at 0.8 µg/mL [1, 7] | inhibition at 4.8 µg/mL [1, 7] | activity against Leishmania donovani (in words) [1] | EC50 [2] | EC50 [3] | EC50 [4] | EC50 [5] | toxicity against normal peripheral mononuclear blood cells [6] | 50% response (EC50) in primary mononuclear blood cells [6] | melting point | inhibition at 0.22 µg/mL ([1]; Leishmania donovani, c = 0.22 μg/ml (positive control), 72 h, axenic amastigotes, read-out: Inhibition of cell growth (%))
CC1=C(O)C(=O)c2c(ccc(O)c2O)C1=O [Dioncoquinone B (1b), 3,5,6-trihydroxy-2-methyl-1,4-naphthoquinone] | 79.2% | 87.6% | excellent | 9.4 µM | 7.6 µM | 11 µM | 18 µM | non-toxic | neither for Dioncoquinone A (1a) or for Dioncoquinone B (1b) a 50% response was achieved | 216 to 217 °C | –
COc1ccc2c(c1OC)C(=O)C(O)=C(C)C2=O [Ancistroquinone C (1f), 3-Hydroxy-5,6-dimethoxy-2-methyl-1,4-naphthoquinone] | – | – | – | – | – | – | – | – | – | 218 °C | –
COc1c2c(cc3c1C(=O)C(O)=C(C)C3=O)OCO2 [Ancistroquinone F (1e), 3-hydroxy-5-methoxy-2-methyl-6,7-methylenedioxy-1,4-naphthoquinone] | 0.3% | 28.6% | – | – | – | – | – | – | – | – | –
CC1=C(O)C(=O)c2c(O)c3c(c(O)c2C1=O)OCO3 [Ancistroquinone E (1d), 3,5,8-trihydroxy-2-methyl-6,7-methylenedioxy-1,4-naphthoquinone] | 19.6% | 30.5% | – | – | – | – | – | – | – | – | –
COc1cc(O)c2c(c1OC)C(=O)C(O)=C(C)C2=O [Ancistroquinone D (1c), 3,8-dihydroxy-5,6-dimethoxy-2-methyl-1,4-naphthoquinone] | 11.4% | 31.7% | – | – | – | – | – | – | – | – | –
CC1=C(O)C(=O)c2c(ccc(O[C@@H]3OC(CO)[C@@H](O)[C@H](O)[C@H]3O)c2O)C1=O (stereo partly drawn) [Dioncoquinone A (1a), 3,5,6-trihydroxy-2-methyl-1,4-naphthoquinone-6-O-β-glucoside] | 49.6% | 80.3% | excellent | 37 µM | 32 µM | 29 µM | 58 µM | non-toxic | neither for Dioncoquinone A (1a) or for Dioncoquinone B (1b) a 50% response was achieved | 189 °C | –
CCCCCCCCCCCCCCCCOP(=O)([O-])OCC[N+](C)(C)C [Miltefosine, miltefosine, reference compound] | – | – | – | – | – | – | – | – | – | – | 53%

— patent US8877718B2, “Antiinfective and antitumoral compounds isolated from tropical lianas” (Julius-Maximilians-Universität Würzburg, priority 2008, dated 2014)
